Laboratory results taken from patent publication US11226337B2, “Chemoproteomic profiling of protein electrophilic and oxidative post-translational modifications” (Zenagem, LLC, priority 2017, dated 2022).

How the values were obtained:
HEK293T cells = assay: CellTiter-Glo luminescence cell viability assay; format: cell-based, human; details: probe 1 3 mM, 1 hour, 37° C., n=4; untreated 132±2
Method: Working stock solutions of probes and competitors were neutralized prior to treatment and media was supplemented with 10 mM Na-HEPES (pH 7.5) to enhance the buffer capacity to ensure the pH was maintained. The phenol red pH indicator of the media confirmed that there was no substantial change in pH during the treatment. Cell viability was quantified based on ATP levels in the absence and presence of probe 1 with or without competitor probe 3 using the CellTiter-Glo luminescence assay (Promega). Trypsinized HEK293T cells were diluted in serum-free DMEM supplemented with 10 mM Na-HEPES to a final concentration of 0.8 million cells/mL. To a cell culture microplate (Greiner Bio-One No. 655098; white, 96-well, 34 mm^2 growth area per well, Clear bottom), 80,000 cells (100 μL of cell suspension) were plated per well. […] After 20 minutes at ambient temperature, luminescence was measured on a Biotech Synergy 4 plate reader. Well luminescence, in relative light units (RLU), under each condition (n=4 of each) was measured to determine cell viability according to the formula: Iuntreated, Iprobe 1, and Iprobe 1/competitor 3=(132±2, 139±2, and 134±1)×10^3 RLU. “Iuntreated” refers to the intensity of luminescence of untreated cells; and “Iprobe 1” refers to the intensity of luminescence of probe-1 treated cells.

[1] = target: T1, CTSS Cathepsin S (P25774) (Homo sapiens, UniProt P25774); assay: SILAC RP-ABPP; format: cell-based; details: SILAC H/L, MDA-MB-231
T1 construct: endogenous in cells; host or cells: HEK293T or MDA-MB-231
T1 sequence (P25774 115-331): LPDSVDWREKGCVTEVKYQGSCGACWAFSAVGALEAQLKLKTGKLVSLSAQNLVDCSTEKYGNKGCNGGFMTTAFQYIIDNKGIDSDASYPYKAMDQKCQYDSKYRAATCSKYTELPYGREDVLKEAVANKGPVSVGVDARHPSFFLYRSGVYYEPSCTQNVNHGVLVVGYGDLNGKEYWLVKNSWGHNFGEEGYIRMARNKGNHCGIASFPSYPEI
Method: (§1) For MS-based experiments, labelling was performed in a similar manner as described above in Example 2, maintaining the same concentrations of probes. Modifications to this protocol included using isotopically ‘light’ and ‘heavy’ SILAC cells that were also grown to near complete confluence prior to treatment. Isotopically light cells were treated with the non-clickable hydrazine probe (at the same concentration as the probe in ‘enrichment’ experiments) or the probe in the presence of 10-fold excess non-clickable hydrazine probe as a competitor (in ‘competition’ experiments). Isotopically heavy cells were treated with the probe for both types of experiments. These treatments were performed in non-SILAC media. Following treatments, cells were washed with cold PBS to remove the probe-containing media, harvested by scraping, collected by centrifugation (1,400 g, 3 min, 4° C.), washed again by resuspension in cold PBS and frozen as pellets at −80° C. until use.
(§2) The fractionated equimolar mixture of heavy and light soluble proteomes (1-1.5 mg) was diluted to 1 mL in PBS. Click reactions were scaled accordingly (except for biotin-azide) to maintain final concentrations of 0.1 mM TBTA, 1 mM CuSO4, 100 μM biotin-azide (10 mM in DMSO) and 1 mM TCEP. The mixture was vortexed and placed on a rotator at ambient temperature for 1 hour. Sequential addition of and mixture with pre-chilled methanol (MeOH, 2 mL), chloroform (CHCl3, 0.5 mL) and PBS (1 mL) on ice quenched the reaction. The precipitated proteome was centrifuged (5,000 g, 10 min, 4° C.) to fractionate the protein interphase from the organic and aqueous solvent layers. The protein pellet was washed with cold 1:1 MeOH:CHCl3 (3×1 mL), mildly sonicated in cold 4:1 MeOH:CHCl3 (2.5 mL) and pelleted once more by centrifugation (5,000 g, 10 min, 4° C.) to ensure click reagents were efficiently removed.
(§3) Heavy and light parent ion chromatograms associated with successfully identified peptides were extracted and compared using CIMAGE software as previously described^69. At least one ion of a co-eluting heavy-light pair must be accurately identified from a fragmentation event that occurred within the retention time window (±10 min) of parent ion elution. To ensure that the correct pair of peaks is quantified, chromatograms are extracted within a 10 ppm error tolerance of the predicted m/z, the signal-to-noise ratio must be >2.5 and the ‘co-elution correlation score’ and ‘envelope correlation score’ must have R^2 values ≥0.8. In addition, peptides detected as ‘singletons,’ where only the heavy ion of a peptide pair was identified, but for which passed all other filtering parameters, are given a default assigned ratio of ‘20,’ which is defined as any measured ratio that is ≥20.
(§4) To further eliminate false positives and any stochastic variability in the data, protein ratios were then determined by the median peptide ratio derived from three or more unique quantified peptides. Protein ratios that complied with these criteria from a single experiment were then averaged with ratios acquired from ≥3 replicates to provide final values for each type of experiment in both cell lines with both probes. […] Most importantly, there are no robustly measured ratios for proteins identified as probe 1 targets that had measured ratios of ˜1 with probe 2. Probe targets in HEK293T and MDA-MB-231 cells represent data combined from ≥3 independent biological replicates with each cell type performed with several independent batches of synthesized probes over a period of almost two years.
(§5) Analogous experiments were also performed with the aryl hydrazine probe 2 (1 mM, 0.5 hour), which furnished a larger list of high-reactivity proteins (33 in total; Table 3) that contained several of the targets of probe 1 (compared in Table 4), as well as additional proteins that may reflect an expanded chemical reactivity for probe 2.

[2] = target: T2, NAGA AlphaNacetylgalactosaminidase (P17050) (Homo sapiens, UniProt P17050); assay: SILAC RP-ABPP; format: cell-based; details: SILAC H/L, MDA-MB-231
T2 construct: endogenous in cells; host or cells: HEK293T or MDA-MB-231
T2 sequence (P17050 18-411): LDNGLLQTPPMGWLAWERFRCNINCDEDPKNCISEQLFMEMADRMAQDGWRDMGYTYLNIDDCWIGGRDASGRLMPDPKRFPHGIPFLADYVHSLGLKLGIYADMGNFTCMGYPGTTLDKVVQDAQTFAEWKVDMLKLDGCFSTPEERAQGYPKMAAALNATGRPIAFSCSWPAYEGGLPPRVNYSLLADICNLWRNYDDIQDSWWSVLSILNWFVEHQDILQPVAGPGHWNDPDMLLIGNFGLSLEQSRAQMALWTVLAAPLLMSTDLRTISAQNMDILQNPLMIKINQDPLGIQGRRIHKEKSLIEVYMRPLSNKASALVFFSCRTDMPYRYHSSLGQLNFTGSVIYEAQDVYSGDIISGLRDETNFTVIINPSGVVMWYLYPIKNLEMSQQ
Method: as §1, §2, §3, §4, §5

[3] = target: T3, PYROXD2 Pyridine nucleotidedisulfide (Q8N2H3) (Homo sapiens, UniProt Q8N2H3); assay: SILAC RP-ABPP; format: cell-based; details: SILAC H/L, MDA-MB-231
T3 construct: In Situ Labelling of Cells with Hydrazine Probes for MS Experiments; endogenous in cells; host or cells: HEK293T and/or MDA-MB-231
T3 sequence (Q8N2H3 whole entry): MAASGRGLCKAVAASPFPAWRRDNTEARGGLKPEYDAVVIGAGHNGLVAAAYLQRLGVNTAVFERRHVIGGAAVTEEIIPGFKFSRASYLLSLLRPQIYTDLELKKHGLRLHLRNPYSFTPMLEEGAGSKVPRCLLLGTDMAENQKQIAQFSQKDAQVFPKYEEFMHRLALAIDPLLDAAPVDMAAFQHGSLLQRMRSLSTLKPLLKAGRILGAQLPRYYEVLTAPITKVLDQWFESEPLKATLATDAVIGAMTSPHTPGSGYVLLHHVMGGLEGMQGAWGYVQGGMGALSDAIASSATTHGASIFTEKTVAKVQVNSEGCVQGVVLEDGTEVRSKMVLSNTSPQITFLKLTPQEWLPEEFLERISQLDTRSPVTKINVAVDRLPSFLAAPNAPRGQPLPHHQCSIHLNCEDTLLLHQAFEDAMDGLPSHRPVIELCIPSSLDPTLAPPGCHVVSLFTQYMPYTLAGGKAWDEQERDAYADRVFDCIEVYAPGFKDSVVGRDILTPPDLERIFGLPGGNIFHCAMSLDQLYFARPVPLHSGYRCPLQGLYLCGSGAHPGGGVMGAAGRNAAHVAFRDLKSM
Method: as §1, §2, §3, §4, §5

[4] = target: T4, XPNPEP3 Probable XaaPro aminopeptidase 3 (Q9NQH7) (Homo sapiens, UniProt Q9NQH7); assay: SILAC RP-ABPP; format: cell-based; details: SILAC H/L, HEK293T
T4 construct: In Situ Labelling of Cells with Hydrazine Probes for MS Experiments; endogenous in cells; host or cells: HEK293T and/or MDA-MB-231
Method: as §1, §2, §3, §4, §5

[5] = target: T5, aminotransferase, mitoch (O15382) (Homo sapiens, UniProt O15382); assay: SILAC RP-ABPP; format: cell-based; details: SILAC H/L, MDA-MB-231
T5 construct: endogenous in cells; host or cells: HEK293T or MDA-MB-231
T5 sequence (O15382 28-392): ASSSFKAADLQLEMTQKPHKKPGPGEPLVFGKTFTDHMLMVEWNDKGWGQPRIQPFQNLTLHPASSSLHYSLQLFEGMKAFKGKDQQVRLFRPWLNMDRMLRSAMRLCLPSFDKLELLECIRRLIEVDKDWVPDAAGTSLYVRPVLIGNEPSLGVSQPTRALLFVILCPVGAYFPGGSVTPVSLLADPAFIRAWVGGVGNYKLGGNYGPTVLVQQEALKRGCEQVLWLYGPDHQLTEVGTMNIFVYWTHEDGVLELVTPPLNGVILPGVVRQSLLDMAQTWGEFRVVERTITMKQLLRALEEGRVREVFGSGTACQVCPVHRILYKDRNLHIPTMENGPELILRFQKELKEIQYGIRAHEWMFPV
Method: as §1, §2, §3, §4, §5

[6] = system: lung, brain and liver tissue; assay: in vivo probe labelling, in-gel fluorescence of tissue proteomes; design: species or system mice; details: i.p., four hours; soluble and membrane proteomes
Method: Studies were conducted to determine whether probes can be used to label proteins in vivo. Mice were injected intraperitoneally (i.p,) with hydrazine probe 2. After treatment with probes for four hours, lung, brain and liver tissue was harvested, processed and labeled with rhodamine azide as described in Example 2. Probe labelled proteins were visualized by in-gel fluorescence scanning. The results are shown FIGS. 24A and 24B.

enrichment ratioavg ([1]; probe 2 1 mM 0.5 h vs probe 4)	competition ratioavg ([1]; probe 2 vs probe 2+10x probe 4)	enrichment ratioavg ([2]; probe 2 1 mM 0.5 h vs probe 4)	competition ratioavg ([2]; probe 2 vs probe 2+10x probe 4)	enrichment ratioavg ([3]; probe 2 1 mM 0.5 h vs probe 4)	competition ratioavg ([3]; probe 2 vs probe 2+10x probe 4)	enrichment ratioavg ([4]; probe 2 1 mM 0.5 h vs probe 4)	competition ratioavg ([4]; probe 2 vs probe 2+10x probe 4)	enrichment ratioavg ([5]; probe 2 1 mM 0.5 h vs probe 4)	competition ratioavg ([5]; probe 2 vs probe 2+10x probe 4)	SMILES	Well luminescence (cell viability based on ATP levels) (HEK293T cells)	labelling of proteins in vivo [6]
–	–	–	–	–	–	–	–	–	–	C#CCNN.Cl [probe 1, prop-2-yn-1-ylhydrazine hydrochloride]	139±2 ×10^3 RLU	–
18	3	17	3	20	20	20	4	15	2	C#CCCNC(=O)c1ccc(NN)cc1.Cl [probe 2, N-(but-3-yn-1-yl)-4-hydrazinylbenzamide hydrochloride]	–	can be used to label and profile proteins in vivo
